# Source: PMC7216583 (Parasites & Vectors, 2020)
# Counter-ions that a name gives are not always drawn. Like-named read-outs stand apart in the source and are kept apart here.
# Key:
# HSP90 = settings: ref library vendor description, cited from earlier work
# [1] = test system: Toxoplasma gondii RH-2F tachyzoites; assay: microbe, parasite or virus in culture; settings: 72 h
# Aurora B = test system: Aurora B; set-up: method as in S-inhibitor catalog; settings: vendor brief description; ref S-inhibitor catalog; cited from earlier work
# in vitro = settings: human; for viability at 72 h: Host viability (%) mean
# Aurora C [2] = test system: Aurora C; set-up: method as in S-inhibitor catalog; settings: vendor brief description; ref S-inhibitor catalog; cited from earlier work
# JAK2 = test system: JAK2; set-up: method as in S-inhibitor catalog; settings: vendor brief description; ref S-inhibitor catalog; cited from earlier work
# PDK-1 = test system: PDK-1; set-up: method as in library vendor description; settings: ref library vendor description, cited from earlier work
# PDGFRβ [3] = test system: PDGFRβ; set-up: method as in S-inhibitor; settings: ref S-inhibitor; cited from earlier work
# Flt1 = test system: Flt1; set-up: method as in library vendor description; settings: ref library vendor description; cited from earlier work
# Flt4 = test system: Flt4; set-up: method as in library vendor description; settings: ref library vendor description; cited from earlier work
# VEGFR2 = test system: VEGFR2; set-up: method as in library vendor description; settings: ref library vendor description; cited from earlier work
# mTOR = test system: mTOR; set-up: method as in library vendor description; settings: ref library vendor description; cited from earlier work
# VEGFR3 = test system: VEGFR3; set-up: method as in library vendor description; settings: ref library vendor description; cited from earlier work
# PDGFRβ [4] = test system: PDGFRβ; set-up: method as in library vendor description; settings: ref library vendor description; cited from earlier work
# VEGFR-2 = test system: VEGFR-2; set-up: method as in vendor brief description; settings: ref vendor brief description; cited from earlier work
# HDAC = test system: HDAC; set-up: method as in S-inhibitor; settings: ref S-inhibitor; cited from earlier work
# [5] = test system: chymotrypsin-like proteolytic (β5) site of the 20S proteasome; set-up: method as in S-inhibitor; settings: ref S-inhibitor; cited from earlier work
# S6K1 = test system: S6K1; set-up: method as in S-inhibitor; settings: ref S-inhibitor; cited from earlier work
# c-Kit = test system: c-Kit; set-up: method as in library vendor description; settings: ref library vendor description; cited from earlier work
# VEGFR1 = test system: VEGFR1; set-up: method as in library vendor description; settings: ref library vendor description; cited from earlier work
# Ret = test system: Ret; set-up: method as in library vendor description; settings: ref library vendor description; cited from earlier work
# Aurora C [6] = test system: Aurora C; set-up: method as in library vendor description; settings: ref library vendor description; cited from earlier work
# [7] = test system: Toxoplasma gondii RH-2F tachyzoites; settings: preliminary screen, mean
# CCR5 = settings: ref S-inhibitor, cited from earlier work
# [8] = read-out: Parasite inhibition (%) mean, preliminary screen, mean
# [9] = read-out: Parasite inhibition (%) mean, preliminary screen of compound library, mean
compound,measurement,setting,value
CO[C@H]1/C=C\C=C(\C)C(=O)NC2=CC(=O)C(NCCN(C)C)=C(C[C@@H](C)C[C@H](OC)[C@H](O)[C@@H](C)/C=C(\C)[C@@H]1OC(N)=O)C2=O [17-DMAG HCl (Alvespimycin)],IC50,HSP90; read-out: IC50 HSP90,62 nM
same,inhibition of growth at 5 µM,[1]; [8],4.3%
Cc1csc(-c2nnc(Nc3ccc(Oc4ncccc4-c4ccnc(N)n4)cc3)c3ccccc23)c1 [AMG 900],IC50,Aurora B,4 nM
same,viability at 72 h,in vitro,33.6%
same,inhibition of growth at 5 µM,[1]; [9],85.9%
same,IC50,Aurora C [2],1 nM
Cc1cc(Nc2nc(N[C@@H](C)c3ccc(F)cc3)c(C#N)cc2F)[nH]n1 [AZ 960],IC50,JAK2,< 3 nM
same,Ki,JAK2,0.45 nM
same,inhibition of growth at 5 µM,[1]; [8],-2.1%
COc1c(C)cnc(Cn2cnc3c(Cl)nc(N)nc32)c1C [BIIB021],EC50,HSP90; read-out: EC50 HSP90,[…]
same,inhibition of growth at 5 µM,[1]; [8],3.5%
O=C(Nc1cccc(Nc2ncc(Br)c(NCCc3cnc[nH]3)n2)c1)N1CCCC1 [BX-912],inhibition of growth at 5 µM,[1]; [8],1.4%
same,IC50,PDK-1; read-out: IC50 PDK-1,12 nM
Cc1cc(CN2CCN(c3c(Br)cnc4[nH]c(-c5ccc(N6CCN(C)CC6)cc5)nc34)CC2)no1 [CCT137690],IC50,Aurora B,25 nM
same,viability at 72 h,in vitro,78.6%
same,inhibition of growth at 5 µM,[1]; [9],86.1%
same,IC50,Aurora C [2],19 nM
CN1CCN(c2cccc(Nc3nc4c(-c5ccc(S(C)(=O)=O)cc5)cccn4n3)c2)CC1 [CEP33779],IC50,JAK2,1.8 nM
same,inhibition of growth at 5 µM,[1]; [9],7.8%
COCCOc1ccc2c(c1)ncn2-c1ccc2cccc(N3CCC(N)CC3)c2n1 [CP 673451],IC50,PDGFRβ [3],1 nM
same,inhibition of growth at 5 µM,[1]; [8],-13.8%
COc1cc2c(Oc3ccc4[nH]c(C)cc4c3F)ncnc2cc1OCCCN1CCCC1 [Cediranib (AZD2171)],IC50,Flt1,5 nM
same,inhibition of growth at 5 µM,[1]; [8],0.4%
same,IC50,Flt4,≤ 3 nM
same,IC50,VEGFR2,0.5 nM
CO[C@H]1C[C@H]2CC[C@@H](C)[C@@](O)(O2)C(=O)C(=O)N2CCCC[C@H]2C(=O)O[C@H]([C@H](C)C[C@@H]2CC[C@H](OP(C)(C)=O)[C@H](OC)C2)CC(=O)[C@H](C)/C=C(\C)[C@@H](O)[C@@H](OC)C(=O)[C@H](C)C[C@H](C)/C=C/C=C/C=C/1C [Deforolimus (Ridaforolimus)],inhibition of growth at 5 µM,[1]; [8],36.8%
same,IC50,mTOR,0.2 nM
CN1CCN(c2ccc3nc(-c4c(N)c5c(F)cccc5[nH]c4=O)[nH]c3c2)CC1 [Dovitinib (TKI-258)],IC50,VEGFR3,[…]
same,IC50,PDGFRβ [4],27 nM
same,inhibition of growth at 5 µM,[1]; read-out: Parasite inhibition (%) mean,-12.9%
COc1cc2nccc(Oc3ccc(NC(=O)NC4CC4)c(Cl)c3)c2cc1C(N)=O [E7080 (Lenvatinib)],IC50,VEGFR3,5.2 nM
same,viability at 72 h,in vitro,52.1%
same,inhibition of growth at 5 µM,[1]; [8],84.1%
same,IC50,VEGFR2,4 nM
Cc1cc(Nc2cc(N3CCN(C)CC3)nc(/C=C/c3ccccc3)n2)n[nH]1 [ENMD-2076],viability at 72 h,in vitro,66.6%
same,inhibition of growth at 5 µM,[1]; [8],74.7%
same,IC50,Flt4,15.9 nM
CCn1cc(-c2ccnc3[nH]c(-c4cccc(CN(C)C)c4)cc23)c(-c2ccc(NC(=O)N(C)C)cc2)n1 [GSK1070916],viability at 72 h,in vitro,67.7%
same,inhibition of growth at 5 µM,[1]; [9],79.9%
same,IC50,Aurora C [2],6.5 nM
CN1CCN(C2CCN(C(=O)Nc3cc(Oc4ccc(NC(=O)C5(C(=O)Nc6ccc(F)cc6)CC5)c(F)c4)ccn3)CC2)CC1 [Golvatinib (E7050)],viability at 72 h,in vitro,78.3%
same,inhibition of growth at 5 µM,[1]; [9],76.8%
same,IC50,VEGFR-2,16 nM
CCN(CC)Cc1ccc2cc(COC(=O)Nc3ccc(C(=O)NO)cc3)ccc2c1 [ITF2357 (Givinostat)],IC50,HDAC,7.5 to 16 nM
same,inhibition of growth at 5 µM,[1]; [8],62.2%
Cn1cc(/C=C/C(=O)c2cccc(F)c2)cc1/C=C/C(=O)NO [MC1568],IC50,HDAC,220 nM
same,inhibition of growth at 5 µM,[1]; [8],35.4%
CC(C)C[C@H](NC(=O)CNC(=O)c1cc(Cl)ccc1Cl)B(O)O [MLN2238],inhibition of growth at 5 µM,[1]; [8],13.3%
same,IC50,[5],3.4 nM
same,Ki,[5],0.93 nM
Cc1ccc(NC(=O)c2ccc(CN3CCN(C)CC3)cc2)cc1Nc1nc(-c2cccnc2)cs1 [Masitinib (AB1010)],IC50,PDGFRβ [4],[…]
same,inhibition of growth at 5 µM,[1]; [8],10.5%
NCC(=O)Nc1ccc(-n2nc(C(F)(F)F)cc2-c2ccc3c(ccc4ccccc43)c2)cc1 [OSU-03012 (AR-12)],inhibition of growth at 5 µM,[1]; [8],5.4%
same,IC50,"PDK-1; recombinant PDK-1, read-out: IC50 recombinant PDK-1",5000 nM
CCc1cncnc1N1CCN(Cc2nc3cc(C(F)(F)F)ccc3[nH]2)CC1 [PF-4708671],IC50,S6K1,160 nM
same,Ki,S6K1,20 nM
same,inhibition of growth at 5 µM,[1]; [8],60.6%
CNC(=O)c1cc(Oc2ccc(NC(=O)Nc3ccc(Cl)c(C(F)(F)F)c3)c(F)c2)ccn1 [Regorafenib (BAY 73-4506)],viability at 72 h,in vitro,68.2%
same,IC50,c-Kit,7 nM
same,inhibition of growth at 5 µM,[1]; [8],76.7%
same,IC50,Ret,1.5 nM
CCCCc1nc2cc(/C=C/C(=O)NO)ccc2n1CCN(CC)CC [SB939 (Pracinostat)],IC50,HDAC,40 to 140 nM
same,inhibition of growth at 5 µM,[1]; [8],34.6%
O=C(Nc1cccc(Cl)c1)Nc1ncc(CCNc2ncnc3ccsc23)s1 [SNS-314 Mesylate],viability at 72 h,in vitro,32.9%
same,inhibition of growth at 5 µM,[1]; [8],79.4%
same,IC50,Aurora C [6],3.4 nM
CCN(CC)CCNC(=O)c1c(C)[nH]c(/C=C2\C(=O)Nc3ccc(F)cc32)c1C [Sunitinib Malate (Sutent)],IC50,PDGFRβ [4],[…]
same,inhibition of growth at 5 µM,[1]; [8],7.5%
CCS(=O)(=O)c1cccc(-c2cc(C(=O)NC3CCN(C)CC3)c(C)c3[nH]c4ncc(C)cc4c23)c1 [TAK-901],IC50,Aurora B,15 nM
same,viability at 72 h,in vitro,52.7%
same,inhibition of growth at 5 µM,[1]; [9],77.8%
CO[C@H]1C[C@H]2CC[C@@H](C)[C@@](O)(O2)C(=O)C(=O)N2CCCC[C@H]2C(=O)O[C@H]([C@H](C)C[C@@H]2CC[C@H](OC(=O)C(C)(CO)CO)[C@H](OC)C2)CC(=O)[C@H](C)/C=C(\C)[C@@H](O)[C@@H](OC)C(=O)[C@H](C)C[C@H](C)/C=C/C=C/C=C/1C [Temsirolimus (Torisel)],inhibition of growth at 5 µM,[1]; [8],22.4%
same,IC50,mTOR,1760 nM
Clc1ccc(Nc2nnc(Cc3ccncc3)c3ccccc23)cc1 [Vatalanib 2HCl (PTK787)],IC50,c-Kit,730 nM
same,inhibition of growth at 5 µM,[1]; [8],-6.6%
COC(=O)Nc1ccc(-c2nc(N3CCOCC3)c3cnn(C4CCN(C(=O)OC)CC4)c3n2)cc1 [WYE-354],inhibition of growth at 5 µM,[1]; [8],43.5%
same,IC50,mTOR,5 nM
"Cc1cc(F)c(Nc2ncnc3cc(OCc4ccccc4)ccc23)cc1O [ZM 323881 HCl, reference compound]","viability at 72 h, 5 µM",in vitro; Host viability (%) Mean ± SD,85.5 ± 5.4%
same,viability at 72 h,in vitro,85.5%
same,inhibition at 5 µM,[1]; read-out: Parasite inhibition (%) Mean ± SD,79.9 ± 1.4%
same,IC50,VEGFR-2,< 2 nM
MLN9708,Parasite inhibition (%) mean,[7],17.5%
same,IC50,[5],3.4 nM
same,Ki,[5],0.93 nM
Maraviroc,IC50,"CCR5; read-out: IC50, CCR5, MIP-1α, MIP-1α",3.3 nM
same,IC50,"CCR5; read-out: IC50, CCR5, MIP-1β, MIP-1β",7.2 nM
same,IC50,"CCR5; read-out: IC50, CCR5, RANTES, RANTES",5.2 nM
